What all share (details): 72 h
For experiment [1], the system named is MDA-MB-468. On the procedure:
(§1)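 Drug sensitivity and resistance testing (DSRT) of breast cancer cell lines in 384-well plates, 5 concentrations in 10-fold dilutions over a compound-specific 10,000-fold range. After 72 h, cytotoxicity was read by CellTox Green fluorescence and viability by CellTiter-Glo luminescence (multiplexed), normalised to DMSO and benzethonium chloride controls. EC50 is the inflection point of the fitted dose-response curve (bottom asymptote free, so it can be relative for partial curves) and is censored at the highest tested concentration. Rows with DSS 0 (no meaningful response) were excluded.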

Experiment [2] has as its system HCC1599. As for the experimental part: as §1
In another experiment the test system is CAL-51. As for the experimental part: as §1
The subject of another experiment is BT-549. As for the experimental part: as §1
Experiment [3] concerns MDA-MB-231. As for the experimental part: as §1
A further experiment has as its system CAL-120. On the procedure: as §1
Experiment [4] deals with CAL-148. As for the experimental part: as §1
The test system of another experiment is MDA-MB-436. As for the experimental part:
as §1

For the next experiment, the system named is HCC1143. As for the experimental part: as §1
Experiment [5] deals with Hs578T. As for the experimental part:
as §1

The subject of experiment [6] is HDQ-P1. As for the experimental part:
as §1

The test system of experiment [7] is BT-474. On the procedure:
as §1

For experiment [8], the system named is HCC1937. On the procedure:
as §1

For experiment [9], the system named is MDA-MB-468. The essentials: (§2)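 Breast cancer cell lines in 20 µl suspension were seeded onto 384-well plates that already held compound dissolved in 5 µl medium and were incubated for 72 h. Viability was measured by adding 2.5 µl CellTiter-Blue for 2 h at 37 °C and reading fluorescence at 560/590 nm. Each plate was normalised to vehicle and a positive kill control and checked by Z'-factor. EC50 was taken from a fitted percent-inhibition dose-response curve, censored at the highest concentration, and rows with a drug sensitivity score of zero were removed.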
The source holds these as a separate data set.

Experiment [10] relates to MDA-MB-231. The essentials:
as §2
The source holds these as a separate data set.

The test system of a further experiment is SK-BR-3. The essentials:
as §2

Experiment [11] concerns Hs578T. The essentials:
as §2
This is another data set of the same source.

Experiment [12] has as its system BT-474. The essentials: as §2
This is another data set of the same source.

The subject of experiment [13] is HCC1937. The essentials: as §2
The source holds these as a separate data set.

Experiment [14] relates to HCC1599. The essentials:
(§3)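 The plates used were 384-well plates holding compound at 5 concentrations in 10-fold steps across a compound-specific 10,000-fold range, into which breast cancer cell lines were seeded in 20 µl suspension. Following 72 h incubation, CellTox Green fluorescence was read at 485/520 nm, and CellTiter-Glo luminescence was read after 10 min at room temperature. Normalisation on each plate used 0.1 % DMSO and a positive kill control. Dose-response curves gave the EC50, which was censored at the top concentration.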
The source holds these as a separate data set.

The test system of experiment [15] is CAL-148. The essentials:
as §3
The source holds these as a separate data set.

A further experiment deals with CAL-85-1. The essentials:
as §3

A further experiment has as its system MDA-MB-453. The essentials: as §3
The test system of experiment [16] is HDQ-P1. The essentials: as §3
This is another data set of the same source.

Experiment [17] deals with HCC1937. The essentials:
as §3
This is another data set of the same source.

Another experiment relates to MFM-223. On the procedure: as §1
The next experiment deals with MCF-10A. As for the experimental part:
as §1

A further experiment has as its system DU-4475. On the procedure: as §1

A value given as a limit tells only on which side of the number the result lay.

As for `Nc1ccccc1NC(=O)c1ccc(CNc2nccc(-c3cccnc3)n2)cc1` [Mocetinostat], the “EC50, CellTox Green” value in the experiment on MDA-MB-468 [1] is 961 nM; in the experiment on HCC1599 [2], 2100 nM; in the experiment with CAL-51, 1600 nM; in the experiment on BT-549, 7700 nM; in the experiment with MDA-MB-231 [3], 1720 nM; in the experiment on CAL-120, 4510 nM. Besides, the “EC50, CellTox Green” value was 5350 nM in the experiment with CAL-148 [4]; 1340 nM with MDA-MB-436; 3360 nM in the experiment on HCC1143; 629 nM in the experiment on Hs578T [5]; 597 nM in the experiment on HDQ-P1 [6]; 6830 nM with BT-474 [7]. The “EC50, CellTox Green” value with HCC1937 [8] was > 10000 nM. The “EC50, CellTiter-Blue viability” value in the experiment on MDA-MB-468 [9] came to 1930 nM; in the experiment on MDA-MB-231 [10], 2740 nM; in the experiment with SK-BR-3 it was 1050 nM; in the experiment with Hs578T [11], 2670 nM; in the experiment with BT-474 [12] it was 5750 nM; in the experiment with HCC1937 [13], 1960 nM. Also, the “EC50, CellTiter-Glo” value is 3020 nM with HCC1599 [14]; 2270 nM in the experiment with CAL-148 [15]; 2710 nM with CAL-85-1; 1200 nM with MDA-MB-453; 5520 nM with HDQ-P1 [16]; 567 nM in the experiment on HCC1937 [17].

On to `COc1ccc(-c2cc3c(C)nc(N)nc3n([C@H]3CC[C@H](OCCO)CC3)c2=O)cn1`, for which the “EC50, CellTox Green” value amounted to 783 nM in the experiment on CAL-51; 3870 nM in the experiment on BT-549; 575 nM with MDA-MB-231 [3]; 787 nM in the experiment on CAL-148 [4]; 6070 nM in the experiment on Hs578T [5]; 1990 nM in the experiment with HDQ-P1 [6]. Further, the “EC50, CellTox Green” value in the experiment with BT-474 [7] was determined as 983 nM; with HCC1937 [8], 5410 nM. For the same compound, the “EC50, CellTiter-Blue viability” value in the experiment on MDA-MB-468 [9] worked out at 268 nM; in the experiment with MDA-MB-231 [10], 144 nM; with SK-BR-3, 40.5 nM; in the experiment with Hs578T [11] it was 158 nM; in the experiment with BT-474 [12] it was 193 nM; in the experiment on HCC1937 [13], 63 nM. Also, the “EC50, CellTiter-Glo” value with HCC1599 [14] came to 402 nM; in the experiment with CAL-148 [15] it was 294 nM; with CAL-85-1 it was 229 nM; in the experiment on MDA-MB-453, 115 nM; in the experiment with HDQ-P1 [16] it was 190 nM; in the experiment with HCC1937 [17], 444 nM.

For `O=C1c2c(O)ccc(O)c2C(=O)c2c(NCCNCCO)ccc(NCCNCCO)c21` [Mitoxantrone], the “EC50, CellTox Green” value with CAL-51 came to 185 nM; in the experiment on CAL-148 [4], 124 nM. The “EC50, CellTiter-Blue viability” value with MDA-MB-468 [9] was 74.8 nM; in the experiment with MDA-MB-231 [10], 51.7 nM; in the experiment with SK-BR-3, 34.5 nM; in the experiment on Hs578T [11] it was 532 nM; in the experiment on BT-474 [12], 106 nM; in the experiment with HCC1937 [13], 2.13 nM. In the experiment on CAL-148 [15], the “EC50, CellTiter-Glo” value came to 403 nM.

For the compound `COc1cc(CCc2cc(NC(=O)c3ccc(N4CC(C)NC(C)C4)cc3)n[nH]2)cc(OC)c1` (stereo not given) [AZD4547], the “EC50, CellTox Green” value with CAL-120 was > 1000 nM.

On to `CS(=O)(=O)N1CCN(Cc2cc3nc(-c4cccc5[nH]ncc45)nc(N4CCOCC4)c3s2)CC1` [Pictilisib], for which the “EC50, CellTox Green” value came to 2090 nM with CAL-51; 293 nM in the experiment with CAL-148 [4]; 955 nM in the experiment on MFM-223; 270 nM in the experiment on MCF-10A; 9300 nM in the experiment on BT-474 [7]. For the same compound, the “EC50, CellTiter-Glo” value with CAL-148 [15] amounted to 1350 nM; with CAL-85-1, 997 nM; with MDA-MB-453 it was 508 nM; with HDQ-P1 [16], 657 nM; in the experiment with HCC1937 [17], 3840 nM.

With `Cc1nc(Nc2ncc(C(=O)Nc3c(C)cccc3Cl)s2)cc(N2CCN(CCO)CC2)n1` [Dasatinib], the “EC50, CellTox Green” value in the experiment with CAL-51 was 10.3 nM; in the experiment on BT-549, 162 nM; in the experiment on MDA-MB-231 [3] it was 515 nM; in the experiment on MCF-10A, 599 nM; in the experiment with Hs578T [5], 277 nM. In addition, the “EC50, CellTiter-Blue viability” value in the experiment with MDA-MB-231 [10] came to 16.8 nM; in the experiment on Hs578T [11], 49.7 nM. Also, the “EC50, CellTiter-Glo” value in the experiment on CAL-85-1 was found to be 79.4 nM; in the experiment with HDQ-P1 [16], 18.3 nM; with HCC1937 [17], 54.7 nM.

With `Cn1cc(CNCC2CCN(c3ncc(C(=O)NO)cn3)CC2)c2ccccc21`, the “EC50, CellTiter-Blue viability” value in the experiment with MDA-MB-468 [9] was found to be 38.9 nM; in the experiment on MDA-MB-231 [10] it was 47.8 nM; in the experiment with SK-BR-3, 5.33 nM; in the experiment on Hs578T [11], 65.1 nM; in the experiment on BT-474 [12], 17 nM; in the experiment on HCC1937 [13] it was 33.6 nM.

Turning to `O=S(=O)(c1cccc2cnccc12)N1CCCNCC1` [Fasudil], in the experiment on MDA-MB-453, the “EC50, CellTiter-Glo” value was found to be 27400 nM.

In the case of `O=C(NC[C@H](O)CO)c1ccncc1Nc1ccc(I)cc1F` [Pimasertib], the “EC50, CellTox Green” value with DU-4475 came out at 48.1 nM; with MDA-MB-231 [3], 16.6 nM; with CAL-120 it was 783 nM; in the experiment with BT-474 [7] it was 2840 nM. In addition, the “EC50, CellTiter-Glo” value with CAL-148 [15] was found to be 1010 nM; in the experiment with CAL-85-1, 1090 nM; in the experiment with HDQ-P1 [16] it was 18.6 nM; in the experiment on HCC1937 [17], 3070 nM.

As to `O=C(NC[C@H](O)CO)c1ccncc1Nc1ccc(I)cc1F`, in the experiment with MDA-MB-231 [10], the “EC50, CellTiter-Blue viability” value worked out at 19.7 nM.

For the compound `CC[C@@]1(O)C(=O)OCc2c1cc1n(c2=O)Cc2cc3c(CN(C)C)c(O)ccc3nc2-1` [Topotecan], the “EC50, CellTox Green” value in the experiment with MDA-MB-468 [1] amounted to 2240 nM; with HCC1599 [2] it was 748 nM; in the experiment with CAL-51, 195 nM; in the experiment on MDA-MB-231 [3] it was 369 nM; in the experiment with CAL-120 it was 2570 nM; in the experiment with CAL-148 [4], 55.6 nM. In addition, the “EC50, CellTox Green” value in the experiment with MDA-MB-436 was 2720 nM; with MCF-10A, 1880 nM; in the experiment on HDQ-P1 [6], > 10000 nM; in the experiment with BT-474 [7], > 10000 nM; in the experiment on HCC1937 [8], 3070 nM. The “EC50, CellTiter-Blue viability” value was 71.9 nM in the experiment on MDA-MB-468 [9], 612 nM in the experiment on MDA-MB-231 [10], 52 nM with SK-BR-3 and 30.3 nM in the experiment with HCC1937 [13]. The “EC50, CellTiter-Glo” value was found to be 189 nM in the experiment on HCC1599 [14]; 221 nM in the experiment with CAL-148 [15]; 755 nM with CAL-85-1; 1830 nM in the experiment with MDA-MB-453; 2740 nM with HCC1937 [17].

As to `COc1nc(N)nc2c1ncn2[C@@H]1O[C@H](CO)[C@@H](O)[C@@H]1O` [Nelarabine], in the experiment with BT-549, the “EC50, CellTox Green” value is > 10000 nM.

For the compound `Cc1c(CN2CCN(C(=O)[C@H](C)O)CC2)sc2c(N3CCOCC3)nc(-c3cnc(N)nc3)nc12` [GDC-0980], the “EC50, CellTox Green” value in the experiment on CAL-51 turned out to be 2320 nM; in the experiment on CAL-148 [4] it was 820 nM; with MFM-223 it was 1000 nM; with HCC1143 it was 1460 nM; with HDQ-P1 [6] it was 8340 nM; with BT-474 [7], 1390 nM. For the same compound, the “EC50, CellTiter-Blue viability” value is 704 nM with MDA-MB-468 [9]; 90.4 nM in the experiment on MDA-MB-231 [10]; 81.8 nM in the experiment on SK-BR-3; 257 nM in the experiment with Hs578T [11]; 318 nM in the experiment with BT-474 [12]; 214 nM in the experiment on HCC1937 [13]. For the same compound, the “EC50, CellTiter-Glo” value is 1340 nM in the experiment on HCC1599 [14]; 701 nM with CAL-148 [15]; 628 nM in the experiment on CAL-85-1; 226 nM with MDA-MB-453; 452 nM in the experiment with HDQ-P1 [16]; 3130 nM in the experiment on HCC1937 [17].

The values above are taken from the supplement of paper PMC4862054.
